Measurements reported in the NIST ThermoML archive (doi:10.1016/j.fluid.2016.08.036).
± gives the expanded uncertainty stated by the source.

Experiment: mn = molality of the nth substance listed, in mol/kg
Conditions: 87 kPa, Liquid, Vibrating tube method

## CCn1cc[n+](C)c1.O=S(=O)([O-])O [1-ethyl-3-methylimidazolium hydrogen sulfate] + O
293.15 K, m1 = 0.0363
  mass density: 1000.86 ± 6 kg/m3
293.15 K, m1 = 0.0687
  mass density: 1003.08 ± 6 kg/m3
293.15 K, m1 = 0.1026
  mass density: 1005.3 ± 6 kg/m3
293.15 K, m1 = 0.1384
  mass density: 1007.57 ± 6 kg/m3
293.15 K, m1 = 0.1716
  mass density: 1009.63 ± 6 kg/m3
293.15 K, m1 = 0.2049
  mass density: 1011.67 ± 6 kg/m3
293.15 K, m1 = 0.2391
  mass density: 1013.72 ± 6 kg/m3
293.15 K, m1 = 0.2718
  mass density: 1015.68 ± 6 kg/m3
293.15 K, m1 = 0.3034
  mass density: 1017.53 ± 6 kg/m3
293.15 K, m1 = 0.3375
  mass density: 1019.54 ± 6 kg/m3
298.15 K, m1 = 0.0363
  mass density: 999.65 ± 6 kg/m3
298.15 K, m1 = 0.0687
  mass density: 1001.82 ± 6 kg/m3
298.15 K, m1 = 0.1026
  mass density: 1003.99 ± 6 kg/m3
298.15 K, m1 = 0.1384
  mass density: 1006.22 ± 6 kg/m3
298.15 K, m1 = 0.1716
  mass density: 1008.23 ± 6 kg/m3
298.15 K, m1 = 0.2049
  mass density: 1010.23 ± 6 kg/m3
298.15 K, m1 = 0.2391
  mass density: 1012.24 ± 6 kg/m3
298.15 K, m1 = 0.2718
  mass density: 1014.17 ± 6 kg/m3
298.15 K, m1 = 0.3034
  mass density: 1016 ± 6 kg/m3
298.15 K, m1 = 0.3375
  mass density: 1017.98 ± 6 kg/m3
303.15 K, m1 = 0.0363
  mass density: 998.2 ± 6 kg/m3
303.15 K, m1 = 0.0687
  mass density: 1000.33 ± 6 kg/m3
303.15 K, m1 = 0.1026
  mass density: 1002.46 ± 6 kg/m3
303.15 K, m1 = 0.1384
  mass density: 1004.64 ± 6 kg/m3
303.15 K, m1 = 0.1716
  mass density: 1006.63 ± 6 kg/m3
303.15 K, m1 = 0.2049
  mass density: 1008.6 ± 6 kg/m3
303.15 K, m1 = 0.2391
  mass density: 1010.58 ± 6 kg/m3
303.15 K, m1 = 0.2718
  mass density: 1012.47 ± 6 kg/m3
303.15 K, m1 = 0.3034
  mass density: 1014.26 ± 6 kg/m3
303.15 K, m1 = 0.3375
  mass density: 1016.21 ± 6 kg/m3
308.15 K, m1 = 0.0363
  mass density: 996.54 ± 6 kg/m3
308.15 K, m1 = 0.0687
  mass density: 998.63 ± 6 kg/m3
308.15 K, m1 = 0.1026
  mass density: 1000.73 ± 6 kg/m3
308.15 K, m1 = 0.1384
  mass density: 1002.87 ± 6 kg/m3
308.15 K, m1 = 0.1716
  mass density: 1004.82 ± 6 kg/m3
308.15 K, m1 = 0.2049
  mass density: 1006.76 ± 6 kg/m3
308.15 K, m1 = 0.2391
  mass density: 1008.7 ± 6 kg/m3
308.15 K, m1 = 0.2718
  mass density: 1010.58 ± 6 kg/m3
308.15 K, m1 = 0.3034
  mass density: 1012.34 ± 6 kg/m3
308.15 K, m1 = 0.3375
  mass density: 1014.25 ± 6 kg/m3
313.15 K, m1 = 0.0363
  mass density: 994.68 ± 6 kg/m3
313.15 K, m1 = 0.0687
  mass density: 996.73 ± 6 kg/m3
313.15 K, m1 = 0.1026
  mass density: 998.8 ± 6 kg/m3
313.15 K, m1 = 0.1384
  mass density: 1000.91 ± 6 kg/m3
313.15 K, m1 = 0.1716
  mass density: 1002.83 ± 6 kg/m3
313.15 K, m1 = 0.2049
  mass density: 1004.74 ± 6 kg/m3
313.15 K, m1 = 0.2391
  mass density: 1006.66 ± 6 kg/m3
313.15 K, m1 = 0.2718
  mass density: 1008.5 ± 6 kg/m3
313.15 K, m1 = 0.3034
  mass density: 1010.24 ± 6 kg/m3
313.15 K, m1 = 0.3375
  mass density: 1012.13 ± 6 kg/m3
